Results published in publication PMC8800111 (The Journal of Biological Chemistry, 2021).

Tests used:
Assay type in all cases: cell-based
[1] = molecular target: proteins of U3A human fibrosarcoma cells (4462 proteins detected) (Homo sapiens, UniProt Q96FF9); conditions: protein CDCA5; U3A cells
[2] = molecular target: proteins of U3A human fibrosarcoma cells (4462 proteins detected) (Homo sapiens, UniProt Q86TS9); conditions: protein MRPL52; soluble abundance after heat, U3A cells
[3] = molecular target: proteins of U3A human fibrosarcoma cells (4462 proteins detected) (Homo sapiens, UniProt O00232); conditions: protein PSMD12; U3A cells
[4] = molecular target: proteins of U3A human fibrosarcoma cells (4462 proteins detected) (Homo sapiens, UniProt Q9NS69); conditions: protein TOMM22; soluble abundance after heat, U3A cells
[5] = molecular target: proteins of U3A human fibrosarcoma cells (4462 proteins detected) (Homo sapiens, UniProt Q6SPF0); conditions: protein SAMD1; soluble abundance after heat, U3A cells
[6] = molecular target: proteins of U3A human fibrosarcoma cells (4462 proteins detected) (Homo sapiens, UniProt Q8NFI3); conditions: protein ENGASE; soluble abundance after heat, U3A cells
[7] = molecular target: proteins of U3A human fibrosarcoma cells (4462 proteins detected) (Homo sapiens, UniProt Q96GM5); conditions: protein SMARCD1; U3A cells
[8] = molecular target: proteins of U3A human fibrosarcoma cells (4462 proteins detected) (Homo sapiens, UniProt Q9UJX6); conditions: protein ANAPC2; soluble abundance after heat, U3A cells
[9] = molecular target: proteins of U3A human fibrosarcoma cells (4462 proteins detected) (Homo sapiens, UniProt Q9UIC8); conditions: protein LCMT1, U3A cells
[10] = molecular target: proteins of U3A human fibrosarcoma cells (4462 proteins detected) (Homo sapiens, UniProt P30419); conditions: protein NMT1, U3A cells
[11] = molecular target: proteins of U3A human fibrosarcoma cells (4462 proteins detected) (Homo sapiens, UniProt Q8WUA7); conditions: protein TBC1D22A; soluble abundance after heat, U3A cells
[12] = molecular target: proteins of U3A human fibrosarcoma cells (4462 proteins detected) (Homo sapiens, UniProt Q9ULU4); conditions: protein ZMYND8; U3A cells
[13] = molecular target: proteins of U3A human fibrosarcoma cells (4462 proteins detected) (Homo sapiens, UniProt Q6P3W2); conditions: protein DNAJC24; ZCSL3, U3A cells
[14] = molecular target: proteins of U3A human fibrosarcoma cells (4462 proteins detected) (Homo sapiens, UniProt Q12805); conditions: protein EFEMP1; U3A cells
[15] = molecular target: proteins of U3A human fibrosarcoma cells (4462 proteins detected) (Homo sapiens, UniProt Q96AC1); conditions: protein FERMT2; U3A cells
[16] = molecular target: proteins of U3A human fibrosarcoma cells (4462 proteins detected) (Homo sapiens, UniProt P15586); conditions: protein GNS, U3A cells
[17] = molecular target: proteins of U3A human fibrosarcoma cells (4462 proteins detected) (Homo sapiens, UniProt P09972); conditions: protein ALDOC, U3A cells
[18] = molecular target: proteins of U3A human fibrosarcoma cells (4462 proteins detected) (Homo sapiens, UniProt Q9UJF2); conditions: protein RASAL2, U3A cells
[19] = molecular target: proteins of U3A human fibrosarcoma cells (4462 proteins detected) (Homo sapiens, UniProt P05388); conditions: protein RPLP0; RPLP0P6; U3A cells
[20] = molecular target: proteins of U3A human fibrosarcoma cells (4462 proteins detected) (Homo sapiens, UniProt Q16775); conditions: protein HAGH, U3A cells
[21] = molecular target: proteins of U3A human fibrosarcoma cells (4462 proteins detected) (Homo sapiens, UniProt P49441); conditions: protein INPP1, U3A cells
[22] = molecular target: proteins of U3A human fibrosarcoma cells (4462 proteins detected) (Homo sapiens, UniProt Q9Y592); conditions: protein CEP83; U3A, 10 μM, 2 h
[23] = molecular target: proteins of U3A human fibrosarcoma cells (4462 proteins detected) (Homo sapiens, UniProt Q9BSL1); conditions: protein UBAC1; soluble abundance after heat, U3A cells
[24] = molecular target: proteins of U3A human fibrosarcoma cells (4462 proteins detected) (Homo sapiens, UniProt Q9Y316); conditions: protein MEMO1, U3A cells
[25] = molecular target: proteins of U3A human fibrosarcoma cells (4462 proteins detected) (Homo sapiens, UniProt Q9Y2K3); conditions: protein MYH15; U3A cells
[26] = molecular target: proteins of U3A human fibrosarcoma cells (4462 proteins detected) (Homo sapiens, UniProt Q9BVS5); conditions: protein TRMT61B; soluble abundance after heat, U3A cells
[27] = molecular target: proteins of U3A human fibrosarcoma cells (4462 proteins detected) (Homo sapiens, UniProt Q13829); conditions: protein TNFAIP1; U3A cells
[28] = molecular target: proteins of U3A human fibrosarcoma cells (4462 proteins detected) (Homo sapiens, UniProt Q9NY33); conditions: protein DPP3, U3A cells
[29] = molecular target: proteins of U3A human fibrosarcoma cells (4462 proteins detected) (Homo sapiens, UniProt P23396); conditions: protein RPS3; soluble abundance after heat, U3A cells
[30] = molecular target: proteins of U3A human fibrosarcoma cells (4462 proteins detected) (Homo sapiens, UniProt P61923); conditions: protein COPZ1; U3A cells

Chain of proteins of U3A human fibrosarcoma cells (4462 proteins detected) (Homo sapiens, UniProt Q96FF9) (Q96FF9 whole entry): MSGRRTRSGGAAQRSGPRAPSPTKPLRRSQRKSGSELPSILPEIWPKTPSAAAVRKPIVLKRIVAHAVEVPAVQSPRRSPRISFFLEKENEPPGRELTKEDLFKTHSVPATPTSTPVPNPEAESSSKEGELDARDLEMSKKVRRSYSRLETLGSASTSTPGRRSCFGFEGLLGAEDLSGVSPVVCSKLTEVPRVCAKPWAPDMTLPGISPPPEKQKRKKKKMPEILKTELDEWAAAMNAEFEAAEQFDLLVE
Chain of proteins of U3A human fibrosarcoma cells (4462 proteins detected) (Homo sapiens, UniProt Q9NY33) (Q9NY33 whole entry): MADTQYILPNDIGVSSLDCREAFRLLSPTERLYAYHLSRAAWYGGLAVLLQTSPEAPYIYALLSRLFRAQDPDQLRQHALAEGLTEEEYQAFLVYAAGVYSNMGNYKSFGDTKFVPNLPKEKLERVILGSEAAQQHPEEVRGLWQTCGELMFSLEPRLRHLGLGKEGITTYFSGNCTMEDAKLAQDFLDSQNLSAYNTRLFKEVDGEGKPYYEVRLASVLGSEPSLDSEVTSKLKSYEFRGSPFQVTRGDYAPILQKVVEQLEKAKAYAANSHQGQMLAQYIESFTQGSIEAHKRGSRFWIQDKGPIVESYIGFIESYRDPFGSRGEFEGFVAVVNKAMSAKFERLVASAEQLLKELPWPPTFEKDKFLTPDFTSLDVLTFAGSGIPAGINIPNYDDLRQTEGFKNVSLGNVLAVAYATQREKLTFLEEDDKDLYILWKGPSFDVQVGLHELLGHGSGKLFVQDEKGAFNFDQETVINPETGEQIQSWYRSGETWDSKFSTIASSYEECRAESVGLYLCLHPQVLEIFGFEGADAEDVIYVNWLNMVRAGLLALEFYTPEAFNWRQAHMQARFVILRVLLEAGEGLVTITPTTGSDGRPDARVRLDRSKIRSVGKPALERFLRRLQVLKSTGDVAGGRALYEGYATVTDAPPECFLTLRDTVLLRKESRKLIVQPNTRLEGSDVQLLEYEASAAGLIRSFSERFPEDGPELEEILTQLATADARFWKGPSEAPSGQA
Chain of proteins of U3A human fibrosarcoma cells (4462 proteins detected) (Homo sapiens, UniProt Q9BSL1) (Q9BSL1 whole entry): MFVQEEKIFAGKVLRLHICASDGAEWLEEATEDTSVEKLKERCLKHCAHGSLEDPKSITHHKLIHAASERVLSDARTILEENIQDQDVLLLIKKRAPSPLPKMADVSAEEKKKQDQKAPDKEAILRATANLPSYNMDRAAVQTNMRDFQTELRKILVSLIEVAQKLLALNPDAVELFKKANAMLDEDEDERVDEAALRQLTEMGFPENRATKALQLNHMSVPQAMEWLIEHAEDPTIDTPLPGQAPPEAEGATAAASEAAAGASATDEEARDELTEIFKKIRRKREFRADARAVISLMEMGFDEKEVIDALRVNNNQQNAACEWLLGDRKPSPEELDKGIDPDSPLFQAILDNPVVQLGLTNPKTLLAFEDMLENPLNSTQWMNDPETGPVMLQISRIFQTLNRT
Chain of proteins of U3A human fibrosarcoma cells (4462 proteins detected) (Homo sapiens, UniProt P49441) (P49441 whole entry): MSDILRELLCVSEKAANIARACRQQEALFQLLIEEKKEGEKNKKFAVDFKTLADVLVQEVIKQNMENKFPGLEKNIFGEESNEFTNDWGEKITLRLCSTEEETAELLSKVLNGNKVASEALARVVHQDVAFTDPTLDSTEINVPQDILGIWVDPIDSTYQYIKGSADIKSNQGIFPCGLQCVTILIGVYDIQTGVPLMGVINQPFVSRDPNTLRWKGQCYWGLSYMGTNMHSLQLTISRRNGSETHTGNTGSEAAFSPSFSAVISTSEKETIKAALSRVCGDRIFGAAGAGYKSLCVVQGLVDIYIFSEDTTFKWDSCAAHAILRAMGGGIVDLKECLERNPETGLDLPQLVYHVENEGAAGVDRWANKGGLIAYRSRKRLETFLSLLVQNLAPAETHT
Chain of proteins of U3A human fibrosarcoma cells (4462 proteins detected) (Homo sapiens, UniProt Q96AC1) (Q96AC1 whole entry): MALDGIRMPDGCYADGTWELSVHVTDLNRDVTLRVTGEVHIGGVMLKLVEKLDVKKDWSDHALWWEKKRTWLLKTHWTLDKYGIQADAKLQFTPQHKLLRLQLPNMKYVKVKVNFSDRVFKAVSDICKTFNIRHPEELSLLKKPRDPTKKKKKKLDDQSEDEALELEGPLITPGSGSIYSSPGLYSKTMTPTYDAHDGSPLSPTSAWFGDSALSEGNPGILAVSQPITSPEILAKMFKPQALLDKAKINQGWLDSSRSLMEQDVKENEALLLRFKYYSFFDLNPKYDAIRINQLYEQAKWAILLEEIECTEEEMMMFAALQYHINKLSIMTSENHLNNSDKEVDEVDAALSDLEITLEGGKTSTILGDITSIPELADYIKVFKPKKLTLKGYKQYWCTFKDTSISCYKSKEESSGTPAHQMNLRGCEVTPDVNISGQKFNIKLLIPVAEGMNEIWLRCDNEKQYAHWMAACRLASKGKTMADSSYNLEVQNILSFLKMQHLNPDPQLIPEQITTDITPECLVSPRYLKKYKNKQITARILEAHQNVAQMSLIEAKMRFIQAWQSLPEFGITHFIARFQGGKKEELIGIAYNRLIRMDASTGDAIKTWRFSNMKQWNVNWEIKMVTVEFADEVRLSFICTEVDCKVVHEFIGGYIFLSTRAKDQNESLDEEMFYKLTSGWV
Chain of proteins of U3A human fibrosarcoma cells (4462 proteins detected) (Homo sapiens, UniProt Q9Y2K3) (Q9Y2K3 whole entry): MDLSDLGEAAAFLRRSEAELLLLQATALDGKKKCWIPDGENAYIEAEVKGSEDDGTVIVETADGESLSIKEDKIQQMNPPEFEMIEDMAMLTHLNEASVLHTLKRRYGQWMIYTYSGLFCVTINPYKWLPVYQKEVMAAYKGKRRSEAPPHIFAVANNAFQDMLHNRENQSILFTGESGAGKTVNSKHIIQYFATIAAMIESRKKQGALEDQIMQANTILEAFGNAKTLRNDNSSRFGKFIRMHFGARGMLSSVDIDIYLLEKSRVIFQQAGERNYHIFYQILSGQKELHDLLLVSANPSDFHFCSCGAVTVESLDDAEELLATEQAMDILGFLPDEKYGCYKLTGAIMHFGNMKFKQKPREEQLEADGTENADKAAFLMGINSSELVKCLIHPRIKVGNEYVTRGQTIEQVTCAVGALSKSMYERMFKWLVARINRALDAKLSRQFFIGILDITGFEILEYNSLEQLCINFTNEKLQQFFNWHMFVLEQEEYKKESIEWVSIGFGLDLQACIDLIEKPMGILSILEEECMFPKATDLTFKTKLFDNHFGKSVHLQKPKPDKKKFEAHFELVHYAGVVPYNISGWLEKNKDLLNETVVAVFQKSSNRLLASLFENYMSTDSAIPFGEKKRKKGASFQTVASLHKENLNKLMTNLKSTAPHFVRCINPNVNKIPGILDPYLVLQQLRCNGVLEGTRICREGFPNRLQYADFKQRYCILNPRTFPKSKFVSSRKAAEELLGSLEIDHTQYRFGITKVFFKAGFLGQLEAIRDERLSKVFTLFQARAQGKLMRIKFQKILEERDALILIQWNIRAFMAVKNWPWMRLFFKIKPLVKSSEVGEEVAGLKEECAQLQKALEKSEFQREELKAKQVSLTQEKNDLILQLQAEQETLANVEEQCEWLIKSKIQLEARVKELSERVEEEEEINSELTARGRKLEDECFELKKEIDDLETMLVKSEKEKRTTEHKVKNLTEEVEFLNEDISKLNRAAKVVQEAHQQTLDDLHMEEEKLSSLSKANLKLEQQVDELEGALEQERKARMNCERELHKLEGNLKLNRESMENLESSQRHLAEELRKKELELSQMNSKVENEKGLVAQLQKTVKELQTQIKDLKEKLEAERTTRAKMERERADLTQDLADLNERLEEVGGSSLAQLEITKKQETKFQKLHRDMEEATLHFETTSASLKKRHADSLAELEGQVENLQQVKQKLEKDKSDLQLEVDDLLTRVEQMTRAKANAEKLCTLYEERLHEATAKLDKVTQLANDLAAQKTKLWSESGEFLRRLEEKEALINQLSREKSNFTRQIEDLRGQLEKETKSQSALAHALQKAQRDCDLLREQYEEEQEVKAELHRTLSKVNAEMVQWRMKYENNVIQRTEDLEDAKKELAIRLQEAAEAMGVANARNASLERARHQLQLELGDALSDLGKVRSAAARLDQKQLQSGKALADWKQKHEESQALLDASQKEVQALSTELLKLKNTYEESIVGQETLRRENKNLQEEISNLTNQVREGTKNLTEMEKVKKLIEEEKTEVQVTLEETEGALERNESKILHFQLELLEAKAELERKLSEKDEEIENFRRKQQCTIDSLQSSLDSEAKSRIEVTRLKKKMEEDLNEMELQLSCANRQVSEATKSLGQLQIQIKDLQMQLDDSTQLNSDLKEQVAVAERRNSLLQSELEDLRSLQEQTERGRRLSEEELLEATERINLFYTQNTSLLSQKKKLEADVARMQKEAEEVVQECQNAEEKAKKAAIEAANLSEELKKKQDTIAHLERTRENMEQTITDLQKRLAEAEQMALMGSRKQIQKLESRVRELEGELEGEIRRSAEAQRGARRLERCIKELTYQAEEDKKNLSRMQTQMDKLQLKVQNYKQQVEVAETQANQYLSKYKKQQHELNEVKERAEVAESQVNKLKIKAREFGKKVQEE
Chain of proteins of U3A human fibrosarcoma cells (4462 proteins detected) (Homo sapiens, UniProt Q12805) (Q12805 18-493): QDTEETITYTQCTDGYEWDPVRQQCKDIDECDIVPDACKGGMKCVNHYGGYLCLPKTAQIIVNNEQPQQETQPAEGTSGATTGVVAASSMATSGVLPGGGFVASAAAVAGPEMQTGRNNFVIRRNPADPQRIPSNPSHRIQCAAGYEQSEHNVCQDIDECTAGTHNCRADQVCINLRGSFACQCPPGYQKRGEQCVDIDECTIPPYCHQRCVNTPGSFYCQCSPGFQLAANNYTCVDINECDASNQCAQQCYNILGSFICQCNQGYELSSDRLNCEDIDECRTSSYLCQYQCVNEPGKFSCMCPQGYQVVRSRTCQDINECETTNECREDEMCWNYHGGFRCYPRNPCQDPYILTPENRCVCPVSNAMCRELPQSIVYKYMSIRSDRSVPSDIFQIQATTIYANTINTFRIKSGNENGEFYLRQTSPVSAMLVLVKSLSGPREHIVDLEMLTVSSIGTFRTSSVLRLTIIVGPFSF
Chain of proteins of U3A human fibrosarcoma cells (4462 proteins detected) (Homo sapiens, UniProt Q9NS69) (Q9NS69 whole entry): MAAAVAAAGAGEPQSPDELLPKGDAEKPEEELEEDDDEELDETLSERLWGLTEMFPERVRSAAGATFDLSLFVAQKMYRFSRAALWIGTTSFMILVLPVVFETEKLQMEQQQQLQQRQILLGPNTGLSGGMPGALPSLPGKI

For CCc1nc(N)nc(N)c1-c1ccc(Cl)cc1 [pyrimethamine], which “Log2 (PYR/DMSO)” value [1] is on record?
The value was 0.19.

And the “Log2 (PYR/DMSO)” value [2]?
The value was 0.15.

What about the “Log2 (PYR/DMSO)” value [3] of the same molecule?
Its value is 0.18.

And the “Log2 (PYR/DMSO)” value [4]?
Its value is 0.14.

And the “Log2 (PYR/DMSO)” value [5]?
The value was 0.15.

What about the “Log2 (PYR/DMSO)” value [6] of the same molecule?
Its value is 0.15.

And the “Log2 (PYR/DMSO)” value [7]?
Its value is 0.17.

What about the “Log2 (PYR/DMSO)” value [8] of the same molecule?
Its value is 0.14.

And the “Log2 (PYR/DMSO)” value [9]?
Its value is -0.04.

And the “Log2 (PYR/DMSO)” value [10]?
Its value is -0.05.

And the “Log2 (PYR/DMSO)” value [11]?
Its value is 0.15.

And the “Log2 (PYR/DMSO)” value [12]?
Its value is 0.16.

And the “Log2 (PYR/DMSO)” value [13]?
Its value is -0.04.

What about the “Log2 (PYR/DMSO)” value [14] of the same molecule?
The value was 0.18.

And the “Log2 (PYR/DMSO)” value [15]?
Its value is 0.16.

And the “Log2 (PYR/DMSO)” value [16]?
Its value is -0.04.

What about the “Log2 (PYR/DMSO)” value [17] of the same molecule?
Its value is -0.04.

What about the “Log2 (PYR/DMSO)” value [18] of the same molecule?
The value was -0.05.

What about the “Log2 (PYR/DMSO)” value [19] of the same molecule?
Its value is 0.23.

What about the “Log2 (PYR/DMSO)” value [20] of the same molecule?
Its value is -0.04.

And the “Log2 (PYR/DMSO)” value [21]?
The value was -0.04.

And the “Log2 (PYR/DMSO), CEP83” value [22]?
Its value is -0.43.

And the “Log2 (PYR/DMSO)” value [23]?
Its value is 0.13.

And the “Log2 (PYR/DMSO)” value [24]?
Its value is -0.03.

And the “Log2 (PYR/DMSO)” value [25]?
The value was 0.17.

What about the “Log2 (PYR/DMSO)” value [26] of the same molecule?
The value was 0.13.

And the “Log2 (PYR/DMSO)” value [27]?
The value was 0.21.

What about the “Log2 (PYR/DMSO)” value [28] of the same molecule?
Its value is -0.04.

What about the “Log2 (PYR/DMSO)” value [29] of the same molecule?
The value was 0.13.

And the “Log2 (PYR/DMSO)” value [30]?
Its value is 0.18.
